This note sets out measurements from patent publication US5164507A, “Antibiotic pyridine compound” (Meiji Seika Kaisha Ltd., priority 1990, dated 1992).

One data set has as its system eumycetes. As to the kind of experiment: antimicrobial activity (Table 1, summary). The conditions noted are these: against certain kinds of eumycetes, from Table 1. The format is cell-based. The source says: (§1) Minimum growth inhibitory concentrations (MIC) of a hydrochloride of substance SF 2698 on various test microorganisms are shown in Table 1 below.
For data set [1], the system named is Candida glabrata IFO-0622. Briefly: MIC (minimum growth inhibitory concentration) on test microorganisms. In kind it is cell-based. The conditions noted are these: Nakaseomyces glabratus, IFO0622.
Source text: as §1

The test system of another data set is Candida albicans M9001. Described as above. In kind it is cell-based.
Source text: as §1

The subject of data set [2] is Cryptococcus neoformans M9010. The data set is described as above. In kind it is cell-based.
Source text: as §1

For another data set, the system named is Candida utilis M9007. The description is as above. In kind it is cell-based. The note with it: Williopsis jadinii.
Source text: as §1

Data set [3] concerns Candida glabrata IFO-0005. The data set is described as above. The format is cell-based. The note with it: Nakaseomyces glabratus, IFO0005.
Source text: as §1

Another data set concerns mice. As to the kind of experiment: toxicity by intravenous injection to mice. The conditions noted are these: dose of 100 mg/kg. The format is in vivo. The source says:
Further, toxicity of a hydrochloride of substance SF2698 was examined by administering to mice the test compound by intravenous injection.

The next data set is described as follows: Solubility. The format is physicochemical.

Where a name gives a salt, the structure may show the parent alone.

By MIC is commonly meant the lowest concentration found to suppress growth. Read a high MIC as a less susceptible organism. As to `N=C1C=CCC(C(=O)O)N1` (stereo not shown) [hydrochloride of substance SF 2698], the antimicrobial activity entry in the data set with eumycetes is listed as “exhibits antimicrobial activity against certain kinds of eumycetes”. Besides, the MIC is 0.78 µg/mL in data set [1]; greater than 100 µg/mL against Candida albicans M9001; greater than 100 µg/mL in data set [2]; 12.5 µg/mL in the data set with Candida utilis M9007; 0.2 µg/mL in data set [3]. Also, in the data set with mice, the case of death result is listed as “no case of death”. In addition, the Solubility result was “soluble” in the data set “Solubility” (in methanol); “insoluble” in the data set “Solubility” (in organic solvents, e.g., ethyl acetate); “soluble” in “Solubility” (in water).
